Experimental data as given in ChEMBL document CHEMBL1201862, “PubChem BioAssay data set” (2004).
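Five compound concentrations were applied to cells in 96-well plates for 48 hours; endpoints were derived by simple linear interpolation of the resulting dose-response curve. The concentration for 50% growth inhibition is given as GI50.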 Calls of active or inactive are those of the source. No stated cut-off is given here; in the data, active = GI50 up to about 1.1 µM and inactive = higher.

What was measured:
Assay in all cases: growth of human tumour cells (NCI), 48 h
786-0 = system: 786-0
A498 = system: A498
A549 = system: A549
ACHN = system: ACHN
BT-549 = system: BT-549
CAKI-1 = system: CAKI-1
COLO 205 = system: COLO 205
DU-145 = system: DU-145
EKVX = system: EKVX
HCT-116 = system: HCT-116
HCT-15 = system: HCT-15
HL-60 = system: HL-60
HOP-62 = system: HOP-62
HOP-92 = system: HOP-92
HT-29 = system: HT-29
Hs-578T = system: Hs-578T
IGROV-1 = system: IGROV-1
K562 = system: K562
KM12 = system: KM12
LOX IMVI = system: LOX IMVI
M14 = system: M14
MCF7 = system: MCF7
MDA-MB-231 = system: MDA-MB-231
MDA-MB-435 = system: MDA-MB-435
MDA-N = system: MDA-N
MOLT-4 = system: MOLT-4
NCI-H226 = system: NCI-H226
NCI-H23 = system: NCI-H23
NCI-H460 = system: NCI-H460
NCI-H522 = system: NCI-H522
NCI/ADR-RES = system: NCI/ADR-RES
OVCAR-3 = system: OVCAR-3
OVCAR-4 = system: OVCAR-4
OVCAR-5 = system: OVCAR-5
OVCAR-8 = system: OVCAR-8
PC-3 = system: PC-3
RPMI-8226 = system: RPMI-8226
RXF 393 = system: RXF 393
SF-268 = system: SF-268
SF-295 = system: SF-295
SF-539 = system: SF-539
SK-MEL-28 = system: SK-MEL-28
SK-MEL-5 = system: SK-MEL-5
SK-OV-3 = system: SK-OV-3
SN12C = system: SN12C
SNB-19 = system: SNB-19
SNB-75 = system: SNB-75
SR = system: SR
SW-620 = system: SW-620
T47D = system: T47D
TK-10 = system: TK-10
U-251 = system: U-251
UACC-62 = system: UACC-62
UO-31 = system: UO-31
CCRF-CEM = system: CCRF-CEM
HCC 2998 = system: HCC 2998
Malme-3M = system: Malme-3M
SK-MEL-2 = system: SK-MEL-2
UACC-257 = system: UACC-257

With `COC(=O)C1(NC(=O)C(CC(=O)OCc2ccccc2)NC(=O)OCc2ccccc2)CCCCCCC1` (stereo not given) the GI50 (786-0) was 63.8 µM (inactive), the GI50 (A498) was 13.6 µM (inactive) and the GI50 (A549) was 32.1 µM (inactive). The GI50 (ACHN) was 34.4 µM (inactive), the GI50 (BT-549) was 23.9 µM (inactive) and the GI50 (CAKI-1) was 31.1 µM (inactive). For the same compound, the GI50 (COLO 205) was 25.8 µM (inactive), the GI50 (DU-145) was > 100 µM (inactive) and the GI50 (EKVX) was 45.4 µM (inactive). The GI50 (HCT-116) was 27.9 µM (inactive), the GI50 (HCT-15) was 30.3 µM and the GI50 (HL-60) was 11.3 µM (inactive). The GI50 (HOP-62) was > 100 µM (inactive), the GI50 (HOP-92) was 42.9 µM (inactive) and the GI50 (HT-29) was 24.6 µM (inactive). For the same compound, the GI50 (Hs-578T) was 45.6 µM (inactive), the GI50 (IGROV-1) was 30 µM (inactive) and the GI50 (K562) was 10.2 µM (inactive). For the same compound, the GI50 (KM12) was 48.3 µM (inactive), the GI50 (LOX IMVI) was 28.2 µM (inactive) and the GI50 (M14) was 34.4 µM (inactive). For the same compound, the GI50 (MCF7) was 31.8 µM (inactive), the GI50 (MDA-MB-231) was 56.4 µM (inactive) and the GI50 (MDA-MB-435) was 29.9 µM (inactive). For the same compound, the GI50 (MDA-N) was 28.6 µM (inactive), the GI50 (MOLT-4) was 4.69 µM (inactive) and the GI50 (NCI-H226) was 40.3 µM (inactive). The GI50 (NCI-H23) was 46.6 µM (inactive), the GI50 (NCI-H460) was 30.7 µM (inactive) and the GI50 (NCI-H522) was 13 µM (inactive). The GI50 (NCI/ADR-RES) was 19.3 µM (inactive), the GI50 (OVCAR-3) was 60.1 µM (inactive) and the GI50 (OVCAR-4) was 29.8 µM (inactive). For the same compound, the GI50 (OVCAR-5) was 62.7 µM (inactive), the GI50 (OVCAR-8) was 26.4 µM (inactive) and the GI50 (PC-3) was 7.96 µM (inactive). For the same compound, the GI50 (RPMI-8226) was 5.56 µM (inactive), the GI50 (RXF 393) was 15.4 µM (inactive) and the GI50 (SF-268) was 44.7 µM (inactive). For the same compound, the GI50 (SF-295) was 31.6 µM (inactive), the GI50 (SF-539) was 49.7 µM (inactive) and the GI50 (SK-MEL-28) was 8.69 µM (inactive). For the same compound, the GI50 (SK-MEL-5) was 13.8 µM (inactive), the GI50 (SK-OV-3) was 40 µM (inactive) and the GI50 (SN12C) was 36.6 µM (inactive). The GI50 (SNB-19) was 49.5 µM (inactive), the GI50 (SNB-75) was 28.6 µM (inactive) and the GI50 (SR) was 5.35 µM (inactive). For the same compound, the GI50 (SW-620) was 31.3 µM (inactive), the GI50 (T47D) was 17.6 µM (inactive) and the GI50 (TK-10) was 47.4 µM (inactive). For the same compound, the GI50 (U-251) was 47.2 µM (inactive), the GI50 (UACC-62) was 24.3 µM (inactive) and the GI50 (UO-31) was 35.6 µM (inactive).
In the case of `COC(=O)c1cc(/C=C2\Cc3cc4c(cc3C2=O)CCC4)cc2c1CCC2`, the GI50 (786-0) is reported as > 100 µM (inactive), the GI50 (A498) is reported as > 100 µM (inactive) and the GI50 (A549) is reported as > 100 µM (inactive). For the same compound, the GI50 (ACHN) was > 100 µM (inactive), the GI50 (BT-549) was > 100 µM (inactive) and the GI50 (CAKI-1) was > 100 µM (inactive). For the same compound, the GI50 (CCRF-CEM) was > 100 µM (inactive), the GI50 (COLO 205) was > 100 µM (inactive) and the GI50 (DU-145) was > 100 µM (inactive). The GI50 (EKVX) was > 100 µM (inactive), the GI50 (HCC 2998) was > 100 µM (inactive) and the GI50 (HCT-116) was 63 µM (inactive). For the same compound, the GI50 (HCT-15) was greater than 100 µM, the GI50 (HL-60) was > 100 µM (inactive) and the GI50 (HOP-62) was > 100 µM (inactive). For the same compound, the GI50 (HT-29) was > 100 µM (inactive), the GI50 (Hs-578T) was > 100 µM (inactive) and the GI50 (IGROV-1) was > 100 µM (inactive). For the same compound, the GI50 (K562) was > 100 µM (inactive), the GI50 (KM12) was > 100 µM (inactive) and the GI50 (LOX IMVI) was > 100 µM (inactive). The GI50 (M14) was > 100 µM (inactive), the GI50 (MCF7) was > 100 µM (inactive) and the GI50 (MDA-MB-231) was > 100 µM (inactive). The GI50 (MDA-MB-435) was > 100 µM (inactive), the GI50 (MDA-N) was > 100 µM (inactive) and the GI50 (MOLT-4) was > 100 µM (inactive). The GI50 (Malme-3M) was > 100 µM (inactive), the GI50 (NCI-H226) was > 100 µM (inactive) and the GI50 (NCI-H23) was > 100 µM (inactive). For the same compound, the GI50 (NCI-H460) was > 100 µM (inactive), the GI50 (NCI-H522) was > 100 µM (inactive) and the GI50 (NCI/ADR-RES) was > 100 µM (inactive). The GI50 (OVCAR-3) was > 100 µM (inactive), the GI50 (OVCAR-4) was 41.3 µM (inactive) and the GI50 (OVCAR-5) was > 100 µM (inactive). The GI50 (OVCAR-8) was > 100 µM (inactive), the GI50 (PC-3) was > 100 µM (inactive) and the GI50 (RPMI-8226) was > 100 µM (inactive). The GI50 (SF-268) was > 100 µM (inactive), the GI50 (SF-295) was > 100 µM (inactive) and the GI50 (SF-539) was > 100 µM (inactive). The GI50 (SK-MEL-28) was > 100 µM (inactive), the GI50 (SK-MEL-2) was > 100 µM (inactive) and the GI50 (SK-OV-3) was > 100 µM (inactive). For the same compound, the GI50 (SN12C) was > 100 µM (inactive), the GI50 (SNB-19) was > 100 µM (inactive) and the GI50 (SNB-75) was > 100 µM (inactive). The GI50 (SR) was > 100 µM (inactive), the GI50 (SW-620) was > 100 µM (inactive) and the GI50 (T47D) was > 100 µM (inactive). The GI50 (TK-10) was > 100 µM (inactive), the GI50 (U-251) was > 100 µM (inactive) and the GI50 (UACC-257) was > 100 µM (inactive). The GI50 (UACC-62) was > 100 µM (inactive) and the GI50 (UO-31) was > 100 µM (inactive).
